Legend:
[1] = cited from earlier work
[2] = test system: Listeria innocua ATCC 33090; assay: Working Example #5: inoculated prerigor beef, high-pressure spray; assay type: cell-based; settings: ˜0.5%-0.75% Lactic Acid; ~220 psi, 30 second spray, ˜120° F., 10 minutes exposure
Protocol: The objective of the testing was to determine the efficacy of Test Formula #1 and Lactic Acid against Listeria innocua ATCC 33090 with a high-pressure application spray at elevated temperatures. Prerigor beef samples were obtained and kept in a cooler at ambient temperature until time of testing. Samples were cut into 13 cm pieces and 2.0 mL of the inoculum (see Test System Preparation below) was spread evenly over the entire surface of the sample. Inoculated samples were then left at room temperature (˜23° C.) for ≧15 minutes. Four replicate samples were taken (two cores per replicate) before treatment. After each spray treatment, a 10-minute exposure time was utilized, and taken four replicate samples were taken (two cores per replicate) and stomached for 1 minute, serially diluted and plated using pour plate technique. Treatments: • 1. Test Formula #1 at 200 ppm total peracid with […], 30 second spray time. • 2. Test Formula #1 at 200 ppm total peracid with ˜150 psi pressure spray, 30 second spray time. • 3. Test Formula #1 at 200 ppm total peracid with ˜100 psi pressure spray, 30 second spray time. • 4. Water Control with ˜220 psi pressure spray, 30-second spray time. • 5. ˜0.5%-0.75% Lactic Acid with ˜220 psi pressure spray, 30-second spray time. • 6. Test Formula #1 at 100 ppm total peracid with ˜220 psi pressure spray, 30 second spray time. • 7. […]

[3] = test system: bacterial flora of prerigor beef; assay: Working Example #4: total plate count on prerigor beef, high pressure spray, comparison to Lactic Acid; assay type: cell-based; settings: ~0.5% Lactic Acid, ~230 psi, 30 sec spray, 10-minute exposure
Source text: The objective of the testing was to determine the efficacy of Test Formula #1 at approximately 50, 100 and 200 ppm total peracid with a high pressure application spray at elevated temperatures in comparison to Lactic Acid against the bacterial flora of prerigor beef. Prerigor beef samples were obtained and kept in a cooler at ambient temperature until time of testing. Four different test treatments were utilized with four replicates per treatment. Two cores (4.3 cm diameter) were taken as each replicate from one piece for both before- and after-treatment samples and combined into 99 mL of Letheen Broth. The cores/neutralizer mixtures were stomached for 1 minute and then serially diluted and plated using pour plate technique. Test Product: Test Formula #1 at 50, 100 and 200 ppm total peracid • Lactic Acid (88% concentrate) • (Batch # Si120972, was titrated at 4.76% total peracid) Application: Eight cores (2 cores per replicate) were aseptically removed from each sample before treatment. These were used for the before-treatment samples. The remaining sample was placed onto a clean and sanitary screen. The sample was then sprayed with Test Formula #1 at approximately 50, 100 or 200 ppm total peracid utilizing a 20- or 30-second spray application time. 0.5% Lactic Acid utilized only the 30-second spray application. […]

[4] = test system: bacterial flora present on prerigor beef samples; assay: Working Example #1: total plate count on prerigor beef after spray, with or without steam; assay type: cell-based
Protocol: The objective of working example #1 was to determine if 0.5% and 1.0% lactic acid alone and in combination with Test Formula #1 and/or steam achieved a reduction in the bacterial flora present on prerigor beef samples. An exposure time of 10 minutes was utilized for all applications and testing was performed at 33° C. Sixteen prerigor beef samples were obtained and kept in a cooler until time of testing. Samples were aseptically divided in half. Eight different test treatments were utilized with four replicate pieces per treatment with the exception of the steam +0.5% lactic acid treatment which only had three replicate pieces. Two cores (4.3 cm diameter) were taken from each replicate piece before and after treatment, combined into 99 mL of Phosphate Buffered Dilution water, stomached for 1 minutes and then serially diluted and plated using pour plate technique. Test Products: • 1. Test Formula #1 at 200 ppm Total […] • 2. Test Formula #1 at 200 ppm Total […]+0.5% Lactic Acid • 3. Test Formula #1 at 200 ppm Total […]+1.0% Lactic Acid • 4. 0.5% Lactic Acid • 5. Steam Alone, followed by a sterile water rinse • 6. Steam+Test Formula #1 at 200 ppm Total […], followed by a sterile water rinse • 7. Steam+Test Formula #1 at 200 ppm Total […]+0.5% Lactic Acid, followed by a sterile water rinse • 8. Steam+0.5% Lactic Acid followed by a sterile water rinse Product Application: All product use solutions were applied by a spray application for 10 seconds. This delivered approximately 150 mL of product. An exposure time of 10 minutes was utilized, followed by a 10 second sterile water rinse, if applicable. Neutralizer: 99 mL of Phosphate Buffered Dilution Water Dilutions Plated: 10^0, 10^-1, 10^-2 for Total Plate Count Before • 10^0, 10^-1 for Total Plate Count After Plating Medium: Tryptone Glucose Extract Agar Incubation: 26° C. for 72 hours [table]

[5] = test system: bacterial flora of prerigor beef; assay: Working Example #2: total plate count on prerigor beef, extended spray and exposure times; assay type: cell-based; settings: 0.5% Lactic Acid, 25 psi, 10 sec spray, 10-minute exposure
Source text: The objective of the testing was to determine the efficacy of various antimicrobial treatments with extended spray and exposure times against the bacterial flora of prerigor beef. Prerigor beef samples were obtained and kept in a cooler at ambient temperature until time of testing. Ten different test treatments were utilized with four replicates per treatment. Two cores (4.3 cm diameter) were taken as each replicate from one piece for both before- and after-treatment samples and combined into 99 mL of Letheen Broth. The cores/neutralizer mixtures were stomached for 1 minute and then serially diluted and plated using pour plate technique. Test Products: • Test Formula #1* at 200 ppm […]=0.42% (4.2 mL were added to 995.8 mL tap water) • Test Formula #1* at 500 ppm […] (10.5 mL were added to 989.5 mL tap water) • 0.5% Lactic Acid • *Test Formula #1, batch # Si120972, was titrated at 4.76% total peracid. Application: Eight cores (2 cores per replicate) were placed onto a clean and sanitary screen. The cores were sprayed with the appropriate test product utilizing a 10- or 30-second spray application time. For each replicate, two cores were removed after a 10-minute exposure time and placed into a stomacher bag containing 99 mL of neutralizer. Neutralizer: 99 mL Letheen Broth Dilutions: 10^0, 10^-1, 10^-2 for Total Plate Count Before • 10^0, 10^-1 for Total Plate Count After Plating Medium: Tryptone Glucose Extract Agar Incubation: 26° C. for 72 hours Calculations: Average CFU/plate=(All eight counts from four replicates/4) • Average CFU/plate×100=Average CFU/100 mL=Y [formula] • Dilution=10, 100, or 1000 • r=2.15 cm • 2=# of cores

Row | Compound | solubility [1] | Avg. CFU/100 mL After [2] | Avg. Log10 Reduc. [2] | Avg. Log10 Reduc. [3] | Avg. CFU/100 mL After ([3]; Before 8.7 × 10^5) | Avg. Log10 Reduc. ([4]; 0.5% Lactic Acid, 10 s spray, 10 min exposure, 33° C.) | Avg. CFU/100 mL After ([4]; 0.5% Lactic Acid, 10 s spray, 10 min exposure, 33° C., Before 2.7 × 10^4) | Avg. Log10 Reduc. ([4]; Steam + 0.5% Lactic Acid, with sterile water rinse) | Avg. CFU/100 mL After ([4]; Steam + 0.5% Lactic Acid, with sterile water rinse, Before 2.5 × 10^4) | Avg. Log10 Reduc. ([5]; 98° F.) | Avg. CFU/100 mL After ([5]; 98° F., Before 1.6 × 10^4) | Avg. Log10 Reduc. ([5]; 120° F.) | Avg. CFU/100 mL After ([5]; 120° F., Before 1.0 × 10^5)
1 | peroxyacetic acid | freely soluble in water, alcohol, ether, and sulfuric acid | – | – | – | – | – | – | – | – | – | – | – | –
2 | CC(O)C(=O)O (stereo not shown) [Lactic Acid, 2-hydroxypropionic acid] | – | 3.5 × 10^5 CFU/100 mL | 1.63 Log10 | 1.58 Log10 | 2.3 × 10^4 CFU/100 mL | 0.91 Log10 | 5.4 × 10^3 CFU/100 mL | 1.69 Log10 | 9.3 × 10^2 CFU/100 mL | −0.01 Log10 | 1.5 × 10^4 CFU/100 mL | 0.07 Log10 | 8.4 × 10^4 CFU/100 mL

— US9770040B2, “Treatment of animal carcasses” (Ecolab USA Inc., priority 1998, dated 2017)
